According to US20260226025A1, “PHARMACEUTICALLY ACCEPTABLE SALT AND CRYSTAL FORM OF TRIAZOLE COMPOUND, AND PREPARATION METHOD THEREFOR” (JIANGSU HENGRUI PHARMACEUTICALS CO., LTD., priority 2023, published 2026):

How the values were obtained:
Format in all cases: physicochemical
[1] = Long-term/accelerated stability; conditions: for physical and chemical stability (conclusion): long-term accelerated conditions for 6 months
[2] = Influencing factor stability study (open containers; light, high temperature, high humidity); conditions: for physical and chemical stability (conclusion): standing for 1 month, influencing factor conditions
Experimental: Samples of the free-state crystal forms A and B of the compound represented by formula I were spread in open containers and left to stand under light exposure (4500 Lux), high temperature (40° C. and 60° C.), and high humidity (RH 75% and RH 93%) conditions for 1 month to study their stability.
Samples of the crystal forms I and II of the sodium salt of the compound represented by formula I were spread in open containers and left to stand under light exposure (4500 Lux), high temperature (40° C. and 60° C.), and high humidity (RH 75%) conditions for 1 month to study their stability.

[3] = DVS (dynamic vapor sorption) hygroscopicity test
Experimental: The MS analyses were performed using an Agilent 1200/1290 DAD-6110/6120 Quadrupole MS liquid chromatography-mass spectrometry system (manufacturer: Agilent; MS model: 6110/6120 Quadrupole MS), waters ACQuity UPLC-QD/SQD (manufacturer: waters; MS model: waters ACQuity Qda Detector/waters SQ Detector), and THERMO Ultimate 3000-Q Exactive (manufacturer: THERMO; MS model: THERMO Q 15 Exactive). The HPLC analyses were performed using an Agilent 1260DAD high pressure liquid chromatograph (Sunfire C18 150×4.6 mm chromatography column) and a Thermo U3000 high pressure liquid chromatograph (Gimini C18 150× 4.6 mm chromatography column). XRPD refers to X-ray powder diffraction: The analysis was performed using a BRUKER D8 X-ray diffractometer; specific acquisition information: a Cu anode (40 kV, 40 mA), ray: monochromatic Cu-Ka ray (1=1.5418 Å). Scan mode: θ/2θ; scan range: 3-48°. DSC refers to differential scanning calorimetry: The analysis was performed using a METTLER TOLEDO DSC 3+ differential scanning calorimeter, with a temperature ramp rate of 10° C./min, specific temperature ranges shown in corresponding patterns (mostly 25° C.-300° C.), and a nitrogen purge speed of 50 mL/min. TGA refers to thermogravimetric analysis: The analysis was performed using a METTLER TOLEDO TGA 2 thermogravimetric analyzer, with a temperature ramp rate of 10° C./min, specific temperature ranges shown in corresponding patterns (mostly 30° C.-400° C.), and a nitrogen purge speed of 50 mL/min. DVS refers to dynamic vapor sorption: Surface Measurement Systems instrinsic was adopted; the humidity started at 50%, the humidity range of the investigation was 0%-95%, and the humidity was increased in increments of 10%; the criterion was as follows: each gradient mass change dM/dT≤0.002%; TMAX 360 min, two cycles.

[4] = 25° C./60% RH, 1 month, listed as Free-state crystal form A
[5] = 25° C./60% RH, 2 months, listed as Free-state crystal form A
[6] = 25° C./60% RH, 3 months, listed as Free-state crystal form A
[7] = 25° C./60% RH, 6 months, listed as Free-state crystal form A
[8] = 40° C./75% RH, 1 month, listed as Free-state crystal form A
[9] = 40° C./75% RH, 2 months, listed as Free-state crystal form A
[10] = 40° C./75% RH, 3 months, listed as Free-state crystal form A
[11] = 40° C./75% RH, 6 months, listed as Free-state crystal form A
[12] = Initial, 0, listed as Free-state crystal form A
[13] = accelerated experimental conditions, 70% RH
[14] = normal storage conditions, 25° C. and 60% RH
[15] = 25° C./60% RH, 1 month, listed as Free-state crystal form B
[16] = 25° C./60% RH, 2 months, listed as Free-state crystal form B
[17] = 25° C./60% RH, 3 months, listed as Free-state crystal form B
[18] = 25° C./60% RH, 6 months, listed as Free-state crystal form B
[19] = 40° C./75% RH, 1 month, listed as Free-state crystal form B
[20] = 40° C./75% RH, 2 months, listed as Free-state crystal form B
[21] = 40° C./75% RH, 3 months, listed as Free-state crystal form B
[22] = 40° C./75% RH, 6 months, listed as Free-state crystal form B
[23] = Initial, 0, listed as Free-state crystal form B

With COCc1ccnc(OCc2c(-c3ccc(O[C@H]4C[C@@H]5CC[C@H](C(=O)O)[C@@H]5C4)c(C)n3)nnn2C)n1 [Crystal form A, (1S,3aS,5S,6aR)-5-((6-(5-(((4-(methoxymethyl)pyrimidin-2-yl)oxy)methyl)-1-methyl-1H-1,2,3-triazol-4-yl)-2-methylpyridin-3-yl)oxy) octahydropentalene-1-carboxylic acid] the Crystal form [1, 4] was “Crystal form A”, the Purity % [1, 4] was 98.6% and the Crystal form [1, 5] was “Crystal form A”. The Purity % [1, 5] was 98.6%, the Crystal form [1, 6] was “Crystal form A” and the Purity % [1, 6] was 98.6%. The Crystal form [1, 7] was “Crystal form A”, the Purity % [1, 7] was 98.6% and the Crystal form [1, 8] was “Crystal form A”. The Purity % [1, 8] was 98.6%, the Crystal form [1, 9] was “Crystal form A” and the Purity % [1, 9] was 98.6%. For the same compound, the Crystal form [1, 10] was “Crystal form A”, the Purity % [1, 10] was 98.6% and the Crystal form [1, 11] was “Crystal form A”. For the same compound, the Purity % [1, 11] was 98.6%, the Crystal form [1, 12] was “Crystal form A” and the Purity % [1, 12] was 98.6%. The “physical and chemical stability (conclusion)” value [1] was “good physical and chemical stability”, the Crystal form ([2]; 40° C., 1 month) was “Crystal form A” and the Purity % ([2]; 40° C., 1 month) was 98.6%. The Crystal form ([2]; 40° C., 7 days) was “Crystal form A”, the Purity % ([2]; 40° C., 7 days) was 98.6% and the Crystal form ([2]; 40° C., 14 days) was “Crystal form A”. For the same compound, the Purity % ([2]; 40° C., 14 days) was 98.6%, the Crystal form ([2]; 60° C., 1 month) was “Crystal form A” and the Purity % ([2]; 60° C., 1 month) was 98.6%. For the same compound, the Crystal form ([2]; 60° C., 7 days) was “Crystal form A”, the Purity % ([2]; 60° C., 7 days) was 98.6% and the Crystal form ([2]; 60° C., 14 days) was “Crystal form A”. The Purity % ([2]; 60° C., 14 days) was 98.6%, the Crystal form ([2]; 75% RH, 1 month) was “Crystal form A” and the Purity % ([2]; 75% RH, 1 month) was 98.6%. The Crystal form ([2]; 75% RH, 7 days) was “Crystal form A”, the Purity % ([2]; 75% RH, 7 days) was 98.6% and the Crystal form ([2]; 75% RH, 14 days) was “Crystal form A”. The Purity % ([2]; 75% RH, 14 days) was 98.6%, the Crystal form ([2]; 93% RH, 1 month) was “Crystal form A” and the Purity % ([2]; 93% RH, 1 month) was 98.6%. For the same compound, the Crystal form ([2]; 93% RH, 7 days) was “Crystal form A”, the Purity % ([2]; 93% RH, 7 days) was 98.6% and the Crystal form ([2]; 93% RH, 14 days) was “Crystal form A”. For the same compound, the Purity % ([2]; 93% RH, 14 days) was 98.6%, the Crystal form ([2]; 4500 Lux, 1 month) was “Crystal form A” and the Purity % ([2]; 4500 Lux, 1 month) was 97.0%. The Crystal form ([2]; 4500 Lux, 7 days) was “Crystal form A”, the Purity % ([2]; 4500 Lux, 7 days) was 98.3% and the Crystal form ([2]; 4500 Lux, 14 days) was “Crystal form A”. The Purity % ([2]; 4500 Lux, 14 days) was 98.1%, the Crystal form ([2]; Initial, 0 days) was “Crystal form A” and the Purity % ([2]; Initial, 0 days) was 98.6%. For the same compound, the “physical and chemical stability (conclusion)” value [2] was “good physical and chemical stability”, the hygroscopic weight gain [3, 13] was “about 0.20%” and the “crystal form re-identified after the DVS test” value [3] was “its crystal form did not change”. The hygroscopic weight gain ([3]; extreme conditions, 90% RH) was “about 0.37%” and the hygroscopic weight gain [3, 14] was “about 0.17%”.
For COCc1ccnc(OCc2c(-c3ccc(O[C@H]4C[C@@H]5CC[C@H](C(=O)O)[C@@H]5C4)c(C)n3)nnn2C)n1 [Crystal form B, (1S,3aS,5S,6aR)-5-((6-(5-(((4-(methoxymethyl)pyrimidin-2-yl)oxy)methyl)-1-methyl-1H-1,2,3-triazol-4-yl)-2-methylpyridin-3-yl)oxy) octahydropentalene-1-carboxylic acid], the Crystal form [1, 15] was “Crystal form B”, the Purity % [1, 15] was 97.7% and the Crystal form [1, 16] was “Crystal form B”. For the same compound, the Purity % [1, 16] was 97.7%, the Crystal form [1, 17] was “Crystal form B” and the Purity % [1, 17] was 97.7%. For the same compound, the Crystal form [1, 18] was “Crystal form B”, the Purity % [1, 18] was 97.7% and the Crystal form [1, 19] was “Crystal form B”. For the same compound, the Purity % [1, 19] was 97.7%, the Crystal form [1, 20] was “Crystal form B” and the Purity % [1, 20] was 97.7%. For the same compound, the Crystal form [1, 21] was “Crystal form B”, the Purity % [1, 21] was 97.7% and the Crystal form [1, 22] was “Crystal form B”. For the same compound, the Purity % [1, 22] was 97.7%, the Crystal form [1, 23] was “Crystal form B” and the Purity % [1, 23] was 97.7%. The “physical and chemical stability (conclusion)” value [1] was “good physical and chemical stability”, the Crystal form ([2]; 40° C., 1 month) was “Crystal form B” and the Purity % ([2]; 40° C., 1 month) was 97.7%. The Crystal form ([2]; 40° C., 7 days) was “Crystal form B”, the Purity % ([2]; 40° C., 7 days) was 97.7% and the Crystal form ([2]; 40° C., 14 days) was “Crystal form B”. For the same compound, the Purity % ([2]; 40° C., 14 days) was 97.7%, the Crystal form ([2]; 60° C., 1 month) was “Crystal form B” and the Purity % ([2]; 60° C., 1 month) was 97.7%. For the same compound, the Crystal form ([2]; 60° C., 7 days) was “Crystal form B”, the Purity % ([2]; 60° C., 7 days) was 97.7% and the Crystal form ([2]; 60° C., 14 days) was “Crystal form B”. The Purity % ([2]; 60° C., 14 days) was 97.7%, the Crystal form ([2]; 75% RH, 1 month) was “Crystal form B” and the Purity % ([2]; 75% RH, 1 month) was 97.7%. For the same compound, the Crystal form ([2]; 75% RH, 7 days) was “Crystal form B”, the Purity % ([2]; 75% RH, 7 days) was 97.7% and the Crystal form ([2]; 75% RH, 14 days) was “Crystal form B”. For the same compound, the Purity % ([2]; 75% RH, 14 days) was 97.7%, the Crystal form ([2]; 93% RH, 1 month) was “Crystal form B” and the Purity % ([2]; 93% RH, 1 month) was 97.7%. For the same compound, the Crystal form ([2]; 93% RH, 7 days) was “Crystal form B”, the Purity % ([2]; 93% RH, 7 days) was 97.7% and the Crystal form ([2]; 93% RH, 14 days) was “Crystal form B”. The Purity % ([2]; 93% RH, 14 days) was 97.7%, the Crystal form ([2]; 4500 Lux, 1 month) was “Crystal form B” and the Purity % ([2]; 4500 Lux, 1 month) was 97.0%. The Crystal form ([2]; 4500 Lux, 7 days) was “Crystal form B”, the Purity % ([2]; 4500 Lux, 7 days) was 97.7% and the Crystal form ([2]; 4500 Lux, 14 days) was “Crystal form B”. For the same compound, the Purity % ([2]; 4500 Lux, 14 days) was 97.5%, the Crystal form ([2]; Initial, 0 days) was “Crystal form B” and the Purity % ([2]; Initial, 0 days) was 97.7%. The “physical and chemical stability (conclusion)” value [2] was “good physical and chemical stability”, the hygroscopic weight gain [3, 13] was “about 0.31%” and the “crystal form re-identified after the DVS test” value [3] was “its crystal form did not change”. The hygroscopic weight gain ([3]; extreme conditions, 90% RH) was “about 0.64%” and the hygroscopic weight gain [3, 14] was “about 0.25%”.
